Assay results published in US6406870B2, “Methods and compositions for modulating heterotypic E-cadherin interactions with T lymphocytes” (The Brigham and Women's Hospital, Inc., priority 1994, dated 2002).

Columns and labels:
[1] = tested on: IEL adhesion to 16E6.A5 epithelial cells; assay: IEL adhesion to 16E6.A5 epithelial cell monolayers; assay type: cell-based, human; details: epithelial cell monolayers pretreated with cytokine
Experimental: Monolayers of adherent cells were grown in flat bottomed 96-well Linbro tissue culture plates. 10^4 adherent cells in 100 μl complete media were added per well and allowed to grow for two to three days until they reached confluence. Just prior to the addition of IEL or transfected COS 7 cells, the adherent cell monolayers were washed with assay media. To label IEL and COS-7 cells, 25 μg of 2′,7′-bis-(2-carboxyethyl)-5 (and -6)-carboxyfluorescein (BCECF-AM, Molecular Probes, Inc., Eugene, Oreg.) was diluted in 5 μl DMSO and added to a suspension of 5×10^6/ml IEL or COS-7 cells in complete media. The cells were incubated at 37° C. for 25 minutes then washed twice in assay media (PBS containing 1 mM CaCl2, 2 mM MgCl2 and 10 mM HEPES). After washing, 50,000 labeled IEL or COS-7 cells in 100 μl of assay media were added to the adherent cell monolayers. IEL or COS-7 cells were allowed to settle onto adherent cell monolayers for 25 or 40 min. at 37° C. Unbound cells were removed by flicking media from the plate. Bound cells were detected using a Fluorescence plate reader (IDEXX Co., Portland, Me.). If antibody blocking was performed, the IEL, COS-7 cells, epithelial cell monolayers, or L-M monolayers were pre-incubated with a 1:250 dilution of ascites fluid or 10 μg/ml of purified mAb for five minutes at 37° C. prior to encounter with the second cell type. At least four replicates were performed. The % cells bound was calculated by reading the fluorescence units obtained after unbound cells were washed off, dividing this number by the input fluorescence units and multiplying by 100. […] In adhesion assays where divalent cations were varied, the IEL were washed with Ca^++ and Mg^++ free Hank's balanced salt solution (HBSS) and pre-equilibrated with HBSS containing the indicated concentrations of MgCl2, MnCl2, or CaCl2 for 10 min. at 37° C. prior to incubation with 16E6.A5 monolayers which had been washed with Ca^++ and Mg^++ free HBSS. Disruption of T84 cell intercellular tight junctions.
The 16E6.A5 cell line was derived by immortalization of the 76N normal epithelial cell line through transfection of the E6 and E7 genes of human papilloma virus (by V. Band, Tufts University, publically available). Monolayers of these adherent cells are grown in flat-bottomed 96-well Linbro tissue culture plates. […] Bound cells are detected using a Fluorescence plate reader (IDEXX Co., Portland Me.). […] The % cells bound is calculated by reading the fluorescence units obtained after unbound cells are washed off and dividing this number by the input fluorescence units obtained after adding 50,000 cells/well and multiplying by 100. Serial dilutions of labeled cells have shown that as few as 1000 cells can be detected in the linear range.

[2] = tested on: homotypic E-cadherin adhesion; details: soluble recombinant protein produced in insect cells; cited from earlier work
[3] = tested on: integrin expression on IEL lines; assay: FACS analysis of integrin expression on cultured IEL; assay type: cell-based, human; details: culture of IEL lines with TGF-β1
Excerpt: Human intestinal tissue was obtained from fatal accident organ donors or from adult patients undergoing resection for colorectal carcinoma, from sections at least 10 cm away from macroscopically detectable lesions. IEL were isolated as described previously (Davies M. D. J. et al. (1981) Gut 22:481; Parker C. et al. (1992) Proc. Natl. Acad. Sci. USA 89:1924). once isolated, the IEL were stimulated with phytohemagglvtinin-P (PHA:Difco) and irradiated feeder cells (80% peripheral blood mononuclear cells and 20% JY lymphoblastoid cells) in Yssel's medium (Yssel H. et al. (1984) J. Immunol. Methods 72:219) containing 2 nM recombinant interleukin (IL)-2 (gift of Ajinomoto, Kawasaki, Japan), 4% (vol/vol) conditioned medium (Brenner M. et al. (1987) J. Immunol. 138:1502), 4% (vol/vol) fetal calf serum (Hyclone), and 50 AM 2-mercaptoethanol at 10% Co2. […] Two different anti-CD8 mAb (OKT8, CD8α; and T8/2T85H7, CD8β) were used to discriminate between expression of the CD8 αα homodimer and the CD8 αβ heterodimer. In agreement with previously reported data (Jarry A. et al. (1990) Eur. J. of Immunol. 20(5):1097), 10% of the CD8^+ cells expressed the homodimer. Thus, the lines were thought to be highly purified IEL preparations. Long term culture of the 032891 and 390I IEL lines was maintained by intermittent restimulation with PHA and irradiated feeder cells. In single color FACS analysis, the long term 032891 cell line was 99% CD3^+, 99% T cell receptor αβ positive, and 99% CD8 αβ positive. The 390I cell line was 99% CD3^+, 99% T cell receptor αβ positive, and 99% CD8 αβ positive and 6% CD4 positive. […]
FACS analysis was performed by suspending 2.5×10^5 cells in 100 μl of staining buffer (PBS, 1% BSA, 4% human serum, 0.02% NaN3) containing saturating concentrations of mAbs and incubating for 1 hr. at 4° C. […] Biotin-conjugated mAbs were used to stain the second molecule which was visualized by PE-conjugated streptavidin (Becton Dickinson & Co., Mountain View, Calif. Viable cells were analyzed using the FACScan or FACSort flow cytometer (Becton Dickinson & Co.).

With IFN-γ: interferon, cytokine as the molecule, how does the “effect on IEL-to-epithelial cell adhesion” value (“effect” for short) [1] read?
The value was “increased adhesion”.

Which “effect” value [1] does the source give for IL-1B: interleukin, cytokine here?
Its value is “no effect”.

Which “blocking of homophilic E-cadherin mediated cell-cell binding” value [2] does the source give for “Recombinant human E-cadherin: recombinant human E-cadherin containing nearly the entire extracellular domain, produced in insect cells (Herrenknecht and Kemler)” here?
The value was “failed to block”.

Which results are given for “TGF-β1: transforming growth factor-beta 1”?
expression of α^Eβ7 on IEL lines [3]: dramatically up-regulated; expression of α^Lβ2 on IEL lines [3]: down regulated; expression of β1 and its associated α chains on IEL lines [3]: little effect

Which “effect” value [1] does the source give for TNF-α here?
Its value is “no effect”.

B1: IL-4: interleukin, cytokine (protein, UniProt P05112 25-153, looked up)
Interleukin-4: HKCDITLQEIIKTLNSLTEQKTLCTELTVTDIFAASKNTTEKETFCRAATVLRQFYSHHEKDTRCLGATAQQFHRHKQLIRFLKRLDRNLWGLAGLNSCPVKEANQSTLENFLERLKTIMREKYSKCSS
For B1, which “effect” value [1] is on record?
The value was “no effect”.
